Test systems include NCI-H23 lung; NCI-H522 lung; EKVX NSCLC; OVCAR-3 ovarian; RXF 393 renal; SW-620 colon; IGROV1 ovarian; OVCAR-8 ovarian; HCT-116 colon; MALME-3M melanoma; SK-MEL-28 melanoma; HOP-62 NSCLC; HOP-92 NSCLC; CCRF-CEM leukemia.
Common to all, as to assay: DTP human tumour cell line panel, 48 h

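48-hour exposure; five concentrations; linearly interpolated endpoints. TGI: concentration producing complete growth inhibition.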

On to `Cc1cccc(-n2c(C)nc3ccc(NC4OC(CO)C(O)C(O)C4O)cc3c2=O)c1` (stereo not drawn), for which the TGI in the test with NCI-H23 lung, in the test with NCI-H522 lung, in the test with EKVX NSCLC, in the test on OVCAR-3 ovarian, with RXF 393 renal and in the test with SW-620 colon was over 100 µM each time. The TGI in the test on IGROV1 ovarian, in the test with OVCAR-8 ovarian, in the test with HCT-116 colon, in the test on MALME-3M melanoma, in the test with SK-MEL-28 melanoma and in the test on HOP-62 NSCLC was over 100 µM in each case.

For `COC(=O)Nc1nc2ccc(Oc3ccc4nc(NC(=O)OC)[nH]c4c3)cc2[nH]1`, the TGI is over 100 µM with NCI-H23 lung; over 100 µM with NCI-H522 lung; over 100 µM in the test on EKVX NSCLC; 0.744 µM in the test with OVCAR-3 ovarian; over 22.8 µM with RXF 393 renal; over 100 µM in the test with HOP-92 NSCLC. Further, the TGI was 11.2 µM in the test on SW-620 colon; over 54.4 µM with IGROV1 ovarian; over 100 µM in the test with OVCAR-8 ovarian; over 100 µM in the test on HCT-116 colon; over 100 µM in the test with MALME-3M melanoma; over 20.4 µM with SK-MEL-28 melanoma. In addition, the TGI in the test on HOP-62 NSCLC is 45.6 µM.

Consider `CSc1c(C#N)c(O)n(-c2ccc(C)cc2)c(=O)c1C#N`, for which the total growth inhibition concentration (TGI) in the test with NCI-H23 lung, in the test on NCI-H522 lung, in the test on EKVX NSCLC, with OVCAR-3 ovarian, in the test with RXF 393 renal and in the test with HOP-92 NSCLC was over 100 µM in each case. Also, the TGI with SW-620 colon, in the test on IGROV1 ovarian, in the test on OVCAR-8 ovarian, in the test with HCT-116 colon, in the test with MALME-3M melanoma and in the test on SK-MEL-28 melanoma was over 100 µM each time.

`Oc1[nH]c2ccccc2c1N=NC(=S)N1CCCCC1`: the TGI with NCI-H23 lung stood at 9.14 µM; with NCI-H522 lung, 15.5 µM; with EKVX NSCLC, 9.75 µM; with OVCAR-3 ovarian, 1.7 µM; in the test on RXF 393 renal, 2.65 µM; with HOP-92 NSCLC it was 6.58 µM. For the same molecule, the TGI in the test with SW-620 colon came to 8.63 µM; in the test with IGROV1 ovarian, 1.77 µM; with OVCAR-8 ovarian, 1.8 µM; with HCT-116 colon, 1.54 µM; in the test on MALME-3M melanoma, 2.2 µM; with SK-MEL-28 melanoma, 12.2 µM. In the test on HOP-62 NSCLC, this molecule came in with a TGI of 3.83 µM.

Regarding `CC(NC(=O)C(OC(=O)C(C)NC(=O)OC(C)(C)C)C(C)C)C(=O)OC(C(=O)O)C(C)C` (stereo not drawn), the TGI in the test with NCI-H522 lung, in the test on EKVX NSCLC, with OVCAR-3 ovarian, in the test with RXF 393 renal, with HOP-92 NSCLC and in the test with SW-620 colon was over 100 µM throughout. The TGI in the test on IGROV1 ovarian, with OVCAR-8 ovarian, in the test with MALME-3M melanoma, with SK-MEL-28 melanoma and with HOP-62 NSCLC was over 100 µM in each case.

Consider `COC(=O)/C=C/c1cnc2c(c1)oc(=O)n2CCc1ccccn1`, for which the TGI in the test on NCI-H23 lung was over 100 µM; in the test on CCRF-CEM leukemia it was 69 µM; in the test on EKVX NSCLC, over 100 µM; in the test on OVCAR-3 ovarian, over 100 µM; in the test with SW-620 colon it was over 100 µM; with IGROV1 ovarian, over 100 µM. Also, the TGI with HCT-116 colon, with MALME-3M melanoma, in the test on SK-MEL-28 melanoma and in the test with HOP-62 NSCLC was over 100 µM each time.

For `CCOC(=O)[C@@H]1C[C@H]1c1ccc(O)c(O)c1`, the TGI in the test with NCI-H23 lung was over 100 µM; in the test on NCI-H522 lung, 47.2 µM; in the test on EKVX NSCLC it was over 100 µM; with OVCAR-3 ovarian, over 100 µM; in the test with RXF 393 renal, 87.4 µM; in the test on HOP-92 NSCLC, over 100 µM. For the same molecule, the TGI was over 100 µM in the test on SW-620 colon; over 100 µM in the test with IGROV1 ovarian; over 100 µM with OVCAR-8 ovarian; 28.6 µM in the test with HCT-116 colon; over 100 µM in the test with MALME-3M melanoma; over 100 µM in the test with SK-MEL-28 melanoma. For the same molecule, the TGI in the test with HOP-62 NSCLC is over 100 µM.

On to `C=C[C@@]1(C)CCC2(O)C(CCC3C2(C)CCC[C@@]3(C)COC(=O)CC(=O)OC)C1` (stereo partly drawn), for which the TGI is 37.4 µM in the test on NCI-H23 lung; 32.4 µM in the test on NCI-H522 lung; over 100 µM with CCRF-CEM leukemia; 32.5 µM in the test on OVCAR-3 ovarian; 61.5 µM with RXF 393 renal; 31.7 µM with SW-620 colon. Moreover, the TGI in the test on IGROV1 ovarian came to 71.7 µM; with OVCAR-8 ovarian, 55 µM; in the test on HCT-116 colon it was 32.3 µM; in the test with MALME-3M melanoma it was 32.3 µM; with SK-MEL-28 melanoma it was 30.9 µM; with HOP-62 NSCLC, 34 µM.

For `CCC[C@H](O)[C@@H](CNc1cc(NC(C)=O)nc(NC(C)=O)n1)N(Cc1ccccc1)Cc1ccccc1`, the concentration for total growth inhibition (TGI) with NCI-H23 lung is 58.4 µM; in the test on NCI-H522 lung it was 27.2 µM; in the test on EKVX NSCLC it was 45.3 µM; in the test with OVCAR-3 ovarian it was 55.6 µM; in the test with HOP-92 NSCLC, over 100 µM; with SW-620 colon it was over 100 µM. Further, the TGI with IGROV1 ovarian is 50.9 µM; in the test on OVCAR-8 ovarian it was 35.1 µM; in the test with HCT-116 colon, 54.1 µM; in the test on MALME-3M melanoma, over 100 µM; in the test with SK-MEL-28 melanoma, over 100 µM; in the test on HOP-62 NSCLC, 36.2 µM.

Turning to `Clc1cc(OCc2nn3c(Cc4ccccc4)nnc3s2)ccc1OCc1nn2c(Cc3ccccc3)nnc2s1`, the TGI in the test with NCI-H23 lung was over 100 µM; with NCI-H522 lung, over 100 µM; in the test with EKVX NSCLC, 66.2 µM; in the test on OVCAR-3 ovarian it was over 100 µM; in the test on RXF 393 renal it was over 100 µM; in the test with HOP-92 NSCLC, 46.5 µM. Also, the TGI in the test on SW-620 colon is over 100 µM; with IGROV1 ovarian, over 100 µM; in the test on OVCAR-8 ovarian, 62.9 µM; in the test with HCT-116 colon, over 100 µM; in the test with MALME-3M melanoma, over 100 µM; in the test on SK-MEL-28 melanoma, over 100 µM. Besides, the TGI in the test with HOP-62 NSCLC was over 100 µM.

`O=c1[nH]c(=O)n(C2CC(O)C(CO)O2)cc1NN=NCCc1ccccc1` (stereo not drawn): the TGI with NCI-H23 lung, with NCI-H522 lung, in the test on CCRF-CEM leukemia, with EKVX NSCLC, in the test with OVCAR-3 ovarian and with RXF 393 renal was over 100 µM in each case. In addition, the TGI in the test with IGROV1 ovarian, in the test with OVCAR-8 ovarian, in the test on HCT-116 colon, in the test on MALME-3M melanoma, with SK-MEL-28 melanoma and in the test on HOP-62 NSCLC was over 100 µM in each case.
